We go through six compounds from patent US6143910A, “Methods for preparation and use of 1α, 24(S) -dihydroxy vitamin D2” (priority 1998, dated 2000).

For data set [1] the following is noted: human, in vivo; cited from earlier work.
Data set [2] is classed as in vivo, rat. How it is done:
Vitamin D2 or 24-OH-D2 was administered (either oral or intraperitoneal supplementation) to vitamin D-deficient rats. Lipid extracts of the plasma were prepared and the metabolites purified by the method of Horst et al. (Horst, R. L., Koszewski, N. J. and Reinhardt, T. A., Biochem., 29:578-82 (1990)) described below for synthesyzing standard biological 1α,24-(OH)2 D2.
Standard biological 1α,24-(OH)2 D2 was synthesized in vitro from 24-OH-D2 by incubating 10 μg of 24-OH-D2 in flask containing 5 ml of 20% kidney homogenates made from vitamin D-deficient chicks. The product of this reaction was isolated by HPLC and identified by mass spectrometry.

Data set [3] can be described thus: Blood metabolite levels in osteoporotic women administered 1α-OH-D2. Type of data set: in vivo, human. To be noted: one day after a single 2 μg dose of 1α-OH-D2. Here is the method: An increase in the production of 1α,24(S)-(OH)2 D2 relative to 1α,25-(OH)2 D2 has also been observed by the present inventors in human females who received 1α-OH-D2 as part of an investigation of that drug for the treatment of osteoporosis. Following either a single dose of 2 μg of 1α-OH-D2 or daily doses of 8 μg/day for one week, blood was collected and analyzed for the metabolites 1α,24(S)-(OH)2 D2 and 1α,25-(OH)2 D2. Lipid was extracted from the blood, and the metabolites were purified by HPLC using standard methods and quantified with the radioreceptor assay produced by Incstar (Stillwater, Minn.). One day after a single 2 μg dose, the level of 1α,24(S)-(OH)2 D2 was undetectable with the 1α,25-(OH)2 D2 level being approximately 11 pg/ml. In contrast, one day following the last dose of 8 μg, the level of 1α,24(S)-(OH)2 D2 averaged 9 pg/ml with the 1α,25-(OH)2 D2 level averaging 30 pg/ml.

Data set [4] relates to 1,25-(OH)2 D3 receptor site. To be noted: Ishizuka et al., Steroids 1981, 1982; cited from earlier work.

Molecules are shown by their SMILES. Where two headings read alike, the source gives them in different places.

For `C=C1/C(=C\C=C2/CCC[C@]3(C)[C@@H]([C@H](C)CCCC(C)C)CC[C@@H]23)C[C@@H](O)C[C@@H]1O` [1α-(OH)D3, 1α-hydroxy vitamin D3], the “Safety of dosage levels of 2.0 μg/day or greater” value in data set [1] is recorded as “not safely obtained”.

As for `C=C1CC[C@H](O)C/C1=C/C=C1\CCC[C@]2(C)[C@@H]([C@H](C)/C=C/[C@H](C)C(C)C)CC[C@@H]12` [vitamin D2], the “1α,24-(OH)2 D2 metabolite in plasma lipid extracts” value in data set [2] (vitamin D-deficient rats, oral or intraperitoneal, HPLC) was “co-migrated on HPLC with the standard 1α,24-(OH)2 D2”.

In the case of `C=C1CC[C@H](O)C/C1=C/C=C1\CCC[C@]2(C)[C@@H]([C@H](C)/C=C/C(C)(O)C(C)C)CC[C@@H]12` (stereo partly drawn) [24-OH-D2, 24-hydroxyvitamin D2], the “1α,24-(OH)2 D2 metabolite in plasma lipid extracts” value in data set [2] (rat, in vivo) was “co-migrated on HPLC with the standard 1α,24-(OH)2 D2”.

On to `C=C1CC[C@H](O)C/C1=C/C=C1\CCC[C@]2(C)[C@@H]([C@H](C)CCCC(C)C)CC[C@@H]12` [vitamin D3], for which the 24-OH-D3 in plasma result in data set [2] (comparable vitamin D-deficient rats) is “no detectable 24-OH-D3”.

On to `C=C1/C(=C\C=C2/CCC[C@]3(C)[C@@H]([C@H](C)/C=C/[C@H](C)C(C)C)CC[C@@H]23)C[C@@H](O)C[C@@H]1O` [1α-OH-D2, 1α-hydroxy vitamin D2], for which the “Blood level of metabolite 1α,24(S)-(OH)2 D2” value in data set [3] is listed as “undetectable”.

With `C=C1/C(=C\C=C2/CCC[C@]3(C)[C@@H]([C@H](C)CC[C@@H](O)C(C)C)CC[C@@H]23)C[C@@H](O)C[C@@H]1O` [1α,24(R)-(OH)2 D3, 1α,24(R)-dihydroxyvitamin D3], the “Binding of the 1,25-(OH)2 D3 receptor site relative to 1,25-(OH)2 D3” value in data set [4] is “more tightly than does 1,25-(OH)2 D3 itself”.
